Experimental data reported in ChEMBL document CHEMBL5724914, “Linking interpersonal differences in gut microbiota composition and drug biotransformation activity” (2024).

Experiments:
[1] = (§1) The drug is tested on Z-027 corresponding to metagenome with ENA study accession number: PRJEB37062 and ENA sample accession number: ERS12561826 for biotransformation under anaerobic condition. The drug concentrations were measured over 9 timepoints collected between 0 and 24 hours of incubation by liquid-chromatography-coupled mass spectrometry (LC–MS); conditions: 2 µM
[2] = as §1, with “Z-026” for “Z-027”, “ERS12561825” for “ERS12561826”; conditions: 2 µM
[3] = (§2) The drug is tested on Z-024 corresponding to pig gut metagenome with ENA study accession number: PRJEB37062 and ENA sample accession number: ERS12561823 for biotransformation under anaerobic condition. The drug concentrations were measured over 9 timepoints collected between 0 and 24 hours of incubation by liquid-chromatography-coupled mass spectrometry (LC–MS); conditions: 2 µM
[4] = as §2, with “Z-022” for “Z-024”, “mouse” for “pig”, “ERS12561821” for “ERS12561823”; conditions: 2 µM
[5] = as §2, with “Z-009” for “Z-024”, “ERS12561809” for “ERS12561823”; conditions: 2 µM
[6] = as §1, with “Z-005” for “Z-027”, “ERS12561805” for “ERS12561826”; conditions: 2 µM
[7] = as §1, with “Z-004” for “Z-027”, “ERS12561804” for “ERS12561826”; conditions: 2 µM
[8] = as §2, with “WLS-086” for “Z-024”, “human” for “pig”, “ERS12561752” for “ERS12561823”; conditions: 2 µM
[9] = as §2, with “WLS-082” for “Z-024”, “human” for “pig”, “ERS12561751” for “ERS12561823”; conditions: 2 µM
[10] = as §2, with “WLS-069” for “Z-024”, “human” for “pig”, “ERS12561748” for “ERS12561823”; conditions: 2 µM
[11] = as §2, with “WLS-010” for “Z-024”, “human” for “pig”, “ERS12561743” for “ERS12561823”; conditions: 2 µM
[12] = human gut metagenome, 24 h, 2 µM
[13] = human gut metagenome, 24 h, 2 µM; remark: listed apart in the source
[14] = human gut metagenome, 24 h, 2 µM; remark: listed apart in the source
[15] = human gut metagenome, 24 h, 2 µM; remark: listed apart in the source
[16] = human gut metagenome, 24 h, 2 µM; remark: listed apart in the source
[17] = human gut metagenome, 24 h, 2 µM; remark: listed apart in the source
[18] = human gut metagenome, 24 h, 2 µM; remark: listed apart in the source
[19] = human gut metagenome, 24 h, 2 µM; remark: listed apart in the source
[20] = human gut metagenome, 24 h, 2 µM; remark: listed apart in the source
Also: call rule not given here.

Bacterial Biotransformation [1] | Bacterial Biotransformation [2] | Bacterial Biotransformation [3] | Bacterial Biotransformation [4] | Bacterial Biotransformation [5] | Bacterial Biotransformation [6] | Bacterial Biotransformation [7] | Bacterial Biotransformation [8] | Bacterial Biotransformation [9] | Bacterial Biotransformation [10] | Bacterial Biotransformation [11] | Bacterial Biotransformation [12] | Bacterial Biotransformation [13] | Bacterial Biotransformation [14] | Bacterial Biotransformation [15] | Bacterial Biotransformation [16] | Bacterial Biotransformation [17] | Bacterial Biotransformation [18] | Bacterial Biotransformation [19] | Bacterial Biotransformation [20] | Compound
Compound metabolized | Compound metabolized | Compound metabolized | Compound metabolized | Compound metabolized | Compound metabolized | Compound metabolized | Compound metabolized | Compound metabolized | Compound metabolized | Compound metabolized | Compound metabolized | Compound metabolized | Compound metabolized | Compound metabolized | Compound metabolized | Compound metabolized | Compound metabolized | Compound metabolized | Compound metabolized | Nc1ccc(/N=N/c2ccccc2)c(N)n1 [PHENAZOPYRIDINE]
Compound metabolized | Compound NOT metabolized | Compound NOT metabolized | Compound metabolized | Compound metabolized | Compound metabolized | Compound metabolized | Compound metabolized | Compound metabolized | Compound metabolized | Compound metabolized | Compound metabolized | Compound metabolized | Compound metabolized | Compound metabolized | Compound metabolized | Compound metabolized | Compound metabolized | Compound metabolized | Compound metabolized | CC(C(=O)O)c1ccc2c(c1)Cc1cccnc1O2 (stereo not given) [PRANOPROFEN]
Compound NOT metabolized | Compound NOT metabolized | Compound metabolized | Compound metabolized | Compound NOT metabolized | Compound NOT metabolized | Compound NOT metabolized | Compound metabolized | Compound NOT metabolized | Compound NOT metabolized | Compound NOT metabolized | Compound NOT metabolized | Compound NOT metabolized | Compound NOT metabolized | Compound metabolized | Compound NOT metabolized | Compound NOT metabolized | Compound NOT metabolized | Compound metabolized | Compound NOT metabolized | CCc1nc(N)nc(N)c1-c1ccc(Cl)cc1 [PYRIMETHAMINE]
Compound NOT metabolized | Compound NOT metabolized | Compound NOT metabolized | Compound metabolized | Compound NOT metabolized | Compound NOT metabolized | Compound NOT metabolized | Compound metabolized | Compound NOT metabolized | Compound NOT metabolized | Compound NOT metabolized | Compound NOT metabolized | Compound NOT metabolized | Compound NOT metabolized | Compound NOT metabolized | Compound NOT metabolized | Compound NOT metabolized | Compound NOT metabolized | Compound NOT metabolized | Compound NOT metabolized | COc1ccccc1OCC(O)CN1CCN(CC(=O)Nc2c(C)cccc2C)CC1 (stereo not given) [RANOLAZINE]
